According to patent US12590062B2, “PD-1/PD-L1 inhibitors” (Gilead Sciences, Inc., priority 2017, dated 2026):
pEC50, pIC50: −log10 of the molar value. Blank lines part the entries; values can stand above or below the molecule they belong to.

How the values were obtained:
[1] = target: T1, PD-L1 (Homo sapiens, UniProt Q9NZQ7); experiment: PD-L1/PD-L1 dimerization biochemical protein-protein interaction assay (ALPHA); format: binding; settings: compound-induced PD-L1 dimerization, head prints '1 nM' (0.5 nM His-tagged PD-L1 and 0.5 nM FLAG-tagged PD-L1), read-out: AC50 PDL1 Dimer Alpha 1 nM
T1 construct: determine if they can specifically dimerize the extracellular domains of PD-L1
T1 sequence (Q9NZQ7 19-238 limits assumed): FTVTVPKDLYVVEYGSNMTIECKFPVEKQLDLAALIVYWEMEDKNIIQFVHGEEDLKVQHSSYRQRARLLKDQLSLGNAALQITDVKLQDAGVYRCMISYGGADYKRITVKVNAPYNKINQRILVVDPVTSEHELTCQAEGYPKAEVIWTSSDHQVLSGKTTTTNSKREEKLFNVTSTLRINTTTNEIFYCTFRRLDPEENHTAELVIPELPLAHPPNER
T1 sequence (Q9NZQ7 19-238 limits assumed): as above
Outline: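 After 2 h at 25 °C with compound, His- and FLAG-tagged PD-L1 ECDs (each 0.5 nM final; 25 mM Hepes pH 7.4, 150 mM NaCl) were detected by sequential anti-His acceptor and anti-FLAG donor bead incubations. Dose-response curves fitted to four-parameter equation for AC50.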

[2] = target: T2, PD-1/PD-L1 interaction (Homo sapiens, UniProt Q9NZQ7); experiment: PD-1/PD-L1 NFAT reporter co-culture assay; format: cell-based; settings: Jurkat PD-1 NFAT-luciferase cells co-cultured with aAPC-PD-L1 CHO cells, 6 hrs at 37° C.; read-out: EC50 NFAT Luciferase
T2 construct: expressed in transfected cells; host or cells: CHO cells (aAPC-PD-L1) co-cultured with Jurkat cells overexpressing PD-1 and an NFAT-luciferase reporter
T2 sequence (Q9NZQ7 19-290): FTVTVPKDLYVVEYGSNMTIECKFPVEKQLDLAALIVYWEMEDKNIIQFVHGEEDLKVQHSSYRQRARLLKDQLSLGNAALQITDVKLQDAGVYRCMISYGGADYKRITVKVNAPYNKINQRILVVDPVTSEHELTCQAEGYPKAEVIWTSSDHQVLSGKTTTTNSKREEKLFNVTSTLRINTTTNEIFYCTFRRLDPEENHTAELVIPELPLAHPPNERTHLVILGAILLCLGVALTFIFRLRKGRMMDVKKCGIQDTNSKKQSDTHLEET
Outline: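 Restoration of TCR-driven NFAT luciferase signal: 6 h, 37 °C co-culture of PD-1 Jurkat reporter cells (pre-mixed with compound) on overnight-seeded PD-L1/anti-CD3 CHO monolayer. ONE-Glo luminescence; dose-response fitted to four-parameter equation for EC50.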

[3] = target: PD-1/PD-L1 (Homo sapiens, UniProt Q9NZQ7); experiment: PD-1/PD-L1 biochemical protein-protein interaction assay (ALPHA); format: binding; settings: 0.3 nM His tagged PD-L1, 2.5 nM biotinylated Fc-PD-1, 60 minutes at 25° C., read-out: IC50 PD-L1-PD-1 Alpha IC50-mono PD-L1-fcP-D1
PD-1/PD-L1, sequence (Q9NZQ7 19-238 limits assumed): as the sequence (Q9NZQ7 19-238 limits assumed) above
Outline: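 His-PD-L1 ECD 0.3 nM + biotin-Fc-PD-1 2.5 nM (final), 25 mM Hepes pH 7.4, 150 mM NaCl, 3.4 mM EDTA; 60 min, 25° C; anti-His acceptor/streptavidin donor ALPHA beads; decreased signal = blocked binding; 4-parameter IC50.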

SMILES: COc1cc(COc2cccc(-c3cccc(COc4cc(OCc5cncc(C#N)c5)c(CNC[C@@H](O)CC(=O)O)cc4Cl)c3C)c2C)c(Cl)cc1CNC[C@@H](O)CC(=O)O [Example 389, (S)-4-((4-(((3′-((4-((((S)-3-carboxy-2-hydroxypropyl)amino)methyl)-2-chloro-5-((5-cyanopyridin-3-yl)methoxy)phenoxy)methyl)-2,2′-dimethyl-[1,1′-biphenyl]-3-yl)oxy)methyl)-5-chloro-2-methoxybenzyl)amino)-3-hydroxybutanoic acid]
AC50 [1]: 120 nM | pEC50 [2]: 6.51 | pIC50 [3]: 9.43

SMILES: Cc1c(COc2cc(OCc3cncc(C#N)c3)c(CNCC3(O)CC3)cc2Cl)cccc1-c1cccc(-c2ccc(OCCNCCO)cc2)c1C [Example 391, 5-((4-chloro-2-((((1-hydroxycyclopropyl)methyl)amino)methyl)-5-((4″-(2-((2-hydroxyethyl)amino)ethoxy)-2,2′-dimethyl-[1,1′:3′,1″-terphenyl]-3-yl)methoxy)phenoxy)methyl)nicotinonitrile]
AC50 [1]: 243 nM | pEC50 [2]: 6.52 | pIC50 [3]: 8.85

SMILES: Cc1c(COc2cc(OCc3cncc(C#N)c3)c(CNC[C@@H](O)CC(=O)O)cc2Cl)cccc1-c1cccc(OCc2ccc(CNC[C@@H](O)CC(=O)O)cn2)c1C [Example 392, (S)-4-(((6-(((3′-((4-((((S)-3-carboxy-2-hydroxypropyl)amino)methyl)-2-chloro-5-((5-cyanopyridin-3-yl)methoxy)phenoxy)methyl)-2,2′-dimethyl-[1,1′-biphenyl]-3-yl)oxy)methyl)pyridin-3-yl)methyl)amino)-3-hydroxybutanoic acid]
AC50 [1]: 232 nM | pEC50 [2]: 6.45 | pIC50 [3]: 10.29

SMILES: Cc1c(COc2cc(OCc3cncc(C#N)c3)c(CNC[C@@H](O)CC(=O)O)cc2Cl)cccc1-c1cccc(-c2cn3cc(CNC[C@@H](O)CC(=O)O)ccc3n2)c1C [Example 394, (S)-4-(((2-(3′-((4-((((S)-3-carboxy-2-hydroxypropyl)amino)methyl)-2-chloro-5-((5-cyanopyridin-3-yl)methoxy)phenoxy)methyl)-2,2′-dimethyl-[1,1′-biphenyl]-3-yl)imidazo[1,2-a]pyridin-6-yl)methyl)amino)-3-hydroxybutanoic acid]
AC50 [1]: 130 nM | pEC50 [2]: 6.36 | pIC50 [3]: 9.99

SMILES: COc1cc(-c2cccc(-c3cccc(COc4nc(OC)c(CN5CC6(C5)CN(C(C)=O)C6)cc4Br)c3Cl)c2Cl)ccc1CN1CC2(C1)CN(C(C)=O)C2 [Example 425]
AC50 [1]: 226 nM | pEC50 [2]: 6.26 | pIC50 [3]: 9.12

SMILES: COc1nc(-c2cccc(-c3cccc(OCc4ccc(CNC[C@@H]5CCC(=O)N5)cc4)c3Cl)c2Cl)ccc1CNC[C@@H]1CCC(=O)N1 [Example 426]
AC50 [1]: 408 nM | pEC50 [2]: 6.20 | pIC50 [3]: 9.40

SMILES: COc1nc(Oc2cccc(-c3cccc(-c4ccc(CNC[C@@H]5CCC(=O)N5)c(OC)n4)c3Cl)c2Cl)ccc1CNC[C@@H]1CCC(=O)N1 [Example 428]
AC50 [1]: 525 nM | pEC50 [2]: 6.55 | pIC50 [3]: 8.86

SMILES: COc1nc(C(=O)Nc2cccc(-c3cccc(-c4ccc(CNC[C@@H]5CCC(=O)N5)c(OC)n4)c3Cl)c2Cl)ccc1CNC[C@@H]1CCC(=O)N1 [Example 429]
AC50 [1]: 240 nM | pEC50 [2]: 6.17 | pIC50 [3]: 9.85

SMILES: COc1nc(OCc2cccc(-c3cccc(-c4ccc(CNC[C@@H]5CCC(=O)N5)cc4)c3Cl)c2Cl)c(Br)cc1CNC[C@@H]1CCC(=O)N1 [Example 431]
AC50 [1]: 249 nM | pEC50 [2]: 6.56 | pIC50 [3]: 8.88

SMILES: COc1nc(-c2cccc(-c3cccc(COc4nc(OC)c(CNC[C@H]5CCC(=O)N5)cc4Cl)c3Cl)c2Cl)ccc1CN1CC2(CCC(=O)N2)C1 [Example 432]
AC50 [1]: 539 nM | pEC50 [2]: 6.54 | pIC50 [3]: 8.82

SMILES: Cc1c(COc2cc(OCc3cncc(C#N)c3)c(CNC[C@@H](O)CC(=O)O)cc2Cl)cccc1-c1cccc(-c2ccc(CNC[C@@H](O)CC(=O)O)c(OCC#N)c2)c1C [Example 433]
AC50 [1]: 167 nM | pEC50 [2]: 6.54 | pIC50 [3]: 10.10

SMILES: COc1nc(-c2cccc(-c3cccc(NC(=O)c4ccc(C5=NCCN5)cn4)c3C)c2Cl)ccc1C1=NCCN1 [Example 434]
AC50 [1]: 106 nM | pEC50 [2]: 6.48 | pIC50 [3]: 10.11

SMILES: COc1nc(OCc2cccc(-c3cccc(-c4ccc5c(c4)C[C@@H](N)C5)c3Cl)c2Cl)c(Br)cc1CN[C@@](C)(CO)C(=O)O [Example 435]
AC50 [1]: 86.2 nM | pEC50 [2]: 6.50 | pIC50 [3]: 9.63

SMILES: CNC(=O)COc1cc(-c2cccc(-c3cccc(COc4cc(OCc5cncc(C#N)c5)c(CNC[C@@H](O)CC(=O)O)cc4Cl)c3C)c2C)ccc1C1=NCCN1 [Example 436]
AC50 [1]: 77.8 nM | pEC50 [2]: 6.26 | pIC50 [3]: 10.19

SMILES: Cc1c(COc2cc(OCc3cncc(C#N)c3)c(CNC[C@@H](O)CC(=O)O)cc2Cl)cccc1-c1cccc(-c2ccc3c(CNC[C@H]4CCC(=O)N4)ccnc3c2)c1C [Example 437]
AC50 [1]: 477 nM | pEC50 [2]: 6.32 | pIC50 [3]: 8.79

SMILES: Cc1c(COc2cc(OCc3cncc(C#N)c3)c(CNC[C@@H](O)CC(=O)O)cc2Cl)cccc1-c1cccc(-c2ccc3c(c2)CC(NCC2CCC(=O)N2)C3)c1C (stereo partly drawn) [Example 439]
AC50 [1]: 154 nM | pEC50 [2]: 6.57 | pIC50 [3]: 9.42

SMILES: Cc1c(COc2cc(OCc3cncc(C#N)c3)c(CNC[C@@H](O)CC(=O)O)cc2Cl)cccc1-c1cccc(-c2ccc3c(c2)CC(N2CC(C)(O)C2)C3)c1C (stereo partly drawn) [Example 442]
AC50 [1]: 328 nM | pEC50 [2]: 6.03 | pIC50 [3]: 9.16

The remaining lines, values ahead:

AC50 [1]: 97.5 nM | pEC50 [2]: 6.92 | pIC50 [3]: 9.49
SMILES: Cc1c(COc2cc(OCc3cncc(C#N)c3)c(CNC[C@@H](O)CC(=O)O)cc2Cl)cccc1-c1cccc(OCc2cc(OCc3cncc(C#N)c3)c(CNC[C@@H](O)CC(=O)O)cc2Cl)c1C [Example 390, (S)-4-((4-((3′-((4-((((S)-3-carboxy-2-hydroxypropyl)amino)methyl)-2-chloro-5-((5-cyanopyridin-3-yl)methoxy)benzyl)oxy)-2,2′-dimethyl-[1,1′-biphenyl]-3-yl)methoxy)-5-chloro-2-((5-cyanopyridin-3-yl)methoxy)benzyl)amino)-3-hydroxybutanoic acid]

AC50 [1]: 84 nM | pEC50 [2]: 6.93 | pIC50 [3]: 10.19
SMILES: Cc1c(COc2cc(OCc3cncc(C#N)c3)c(CNC[C@@H](O)CC(=O)O)cc2Cl)cccc1-c1cccc(-c2nc3c(Cl)cc(CNC[C@@H](O)CC(=O)O)cn3n2)c1C [Example 393, (S)-4-(((2-(3′-((4-((((S)-3-carboxy-2-hydroxypropyl)amino)methyl)-2-chloro-5-((5-cyanopyridin-3-yl)methoxy)phenoxy)methyl)-2,2′-dimethyl-[1,1′-biphenyl]-3-yl)-8-chloro-[1,2,4]triazolo[1,5-a]pyridin-6-yl)methyl)amino)-3-hydroxybutanoic acid]

AC50 [1]: 89.6 nM | pEC50 [2]: 6.82 | pIC50 [3]: 9.66
SMILES: Cc1c(COc2cc(OCc3cncc(C#N)c3)c(CNC[C@@H](O)CC(=O)O)cc2Cl)cccc1-c1cccc(-c2nc3c(C)c(CNC[C@@H](O)CC(=O)O)ccc3s2)c1C [Example 395, (S)-4-(((2-(3′-((4-((((S)-3-carboxy-2-hydroxypropyl)amino)methyl)-2-chloro-5-((5-cyanopyridin-3-yl)methoxy)phenoxy)methyl)-2,2′-dimethyl-[1,1′-biphenyl]-3-yl)-4-methylbenzo[d]thiazol-5-yl)methyl)amino)-3-hydroxybutanoic acid]

AC50 [1]: 37.9 nM | pEC50 [2]: 6.98 | pIC50 [3]: 10.19
SMILES: Cc1c(-c2nc3ccc(CNC[C@@H](O)CC(=O)O)cc3s2)cccc1-c1cccc2c1CC[C@@H]2Oc1nc(OCc2cncc(C#N)c2)c(CNC[C@@H](O)CC(=O)O)cc1Cl [Example 396, (S)-4-(((2-(3-((S)-1-((5-((((S)-3-carboxy-2-hydroxypropyl)amino)methyl)-3-chloro-6-((5-cyanopyridin-3-yl)methoxy)pyridin-2-yl)oxy)-2,3-dihydro-1H-inden-4-yl)-2-methylphenyl)benzo[d]thiazol-6-yl)methyl)amino)-3-hydroxybutanoic acid]

AC50 [1]: 290 nM | pEC50 [2]: 6.57 | pIC50 [3]: 8.69
SMILES: COc1nc(-c2cccc(-c3cccc(COc4nc(OC)c(CN5CC6(CNC(=O)C6)C5)cc4Cl)c3Cl)c2Cl)ccc1CNC[C@@H]1CCC(=O)N1 [Example 430]

AC50 [1]: 168 nM | pEC50 [2]: 6.65 | pIC50 [3]: 9.32
SMILES: Cc1c(COc2cc(OCc3cncc(C#N)c3)c(CNC[C@@H](O)CC(=O)O)cc2Cl)cccc1-c1cccc(Nc2nccc3cc(CNCCO)cnc23)c1C [Example 438]

AC50 [1]: 113 nM | pEC50 [2]: 6.60 | pIC50 [3]: 9.94
SMILES: COc1ccc(-c2cccc(-c3cccc(COc4cc(OCc5cncc(C#N)c5)c(CN[C@@](C)(CO)C(=O)O)cc4Cl)c3C)c2C)cc1CN [Example 440]

AC50 [1]: 301 nM | pEC50 [2]: 6.59 | pIC50 [3]: 9.67
SMILES: Cc1c(COc2cc(OCc3cncc(C#N)c3)c(CN[C@@](C)(CO)C(=O)O)cc2Cl)cccc1-c1cccc(-c2ccc(OCCN3CCC4(CC3)CC(=O)N4)cc2)c1C [Example 441]
